Measurements taken from the NIST ThermoML archive (doi:10.1021/acs.jced.7b00148).

Details: Liquid; for vapor or sublimation pressure: Closed cell (Static) method; for Critical pressure: Direct measurement; for Critical temperature: Visual observation in an unstirred cell

C=CCCC [1-pentene]
Details | Critical pressure [kPa] | Critical temperature [K] | vapor or sublimation pressure [kPa]
– | 3585 | 466.59 | –
297.86 K | – | – | 84
327.08 K | – | – | 216
336.14 K | – | – | 279
346.92 K | – | – | 372
356.19 K | – | – | 468
356.89 K | – | – | 474
366.77 K | – | – | 600
377.34 K | – | – | 757
387.42 K | – | – | 933
394.67 K | – | – | 1085
399.61 K | – | – | 1193
403.03 K | – | – | 1269
411.19 K | – | – | 1472
420.96 K | – | – | 1752
426.1 K | – | – | 1915
436.17 K | – | – | 2255
439.5 K | – | – | 2373
445.74 K | – | – | 2622
452.59 K | – | – | 2902
456.52 K | – | – | 3081
457.93 K | – | – | 3152
460.95 K | – | – | 3294
462.87 K | – | – | 3389
463.77 K | – | – | 3443
466.59 K | – | – | 3585

C=C(C)CC [2-methyl-1-butene]
Details | Critical pressure [kPa] | Critical temperature [K] | vapor or sublimation pressure [kPa]
– | 3652 | 467.9 | –
299.27 K | – | – | 85
323.65 K | – | – | 190
341.18 K | – | – | 312
353.77 K | – | – | 431
366.06 K | – | – | 579
368.18 K | – | – | 608
375.63 K | – | – | 717
386.21 K | – | – | 898
398.5 K | – | – | 1149
409.28 K | – | – | 1402
419.65 K | – | – | 1695
429.02 K | – | – | 1985
431.24 K | – | – | 2065
438.39 K | – | – | 2316
448.46 K | – | – | 2723
457.43 K | – | – | 3118
460.55 K | – | – | 3271
463.37 K | – | – | 3409
465.49 K | – | – | 3523
467.9 K | – | – | 3652

CC=C(C)C [2-methyl-2-butene]
Details | Critical pressure [kPa] | Critical temperature [K] | vapor or sublimation pressure [kPa]
– | 3686 | 477.47 | –
307.63 K | – | – | 87
325.06 K | – | – | 157
340.98 K | – | – | 249
350.14 K | – | – | 321
364.85 K | – | – | 463
372.91 K | – | – | 560
380.97 K | – | – | 673
389.83 K | – | – | 811
397.89 K | – | – | 954
408.17 K | – | – | 1167
422.67 K | – | – | 1524
430.83 K | – | – | 1758
439.09 K | – | – | 2021
448.36 K | – | – | 2349
453.3 K | – | – | 2541
454.71 K | – | – | 2600
461.46 K | – | – | 2884
464.08 K | – | – | 3006
470.72 K | – | – | 3327
471.73 K | – | – | 3377
473.04 K | – | – | 3442
475.16 K | – | – | 3556
477.47 K | – | – | 3686

C=CC(C)C [3-methyl-1-butene]
Details | Critical pressure [kPa] | Critical temperature [K] | vapor or sublimation pressure [kPa]
– | 3463 | 451.38 | –
302.9 K | – | – | 140
323.75 K | – | – | 264
336.44 K | – | – | 374
350.65 K | – | – | 533
358.2 K | – | – | 635
371.6 K | – | – | 855
382.88 K | – | – | 1073
390.84 K | – | – | 1255
399 K | – | – | 1458
405.25 K | – | – | 1632
413.2 K | – | – | 1874
420.56 K | – | – | 2113
431.03 K | – | – | 2509
439.9 K | – | – | 2885
445.14 K | – | – | 3138
447.76 K | – | – | 3260
450.48 K | – | – | 3407
451.38 K | – | – | 3463
